Laboratory results taken from PMC8459971, “Evaluation of the hepatotoxicity of the novel GPR40 (FFAR1) agonist CPL207280 in the rat and monkey” (PLoS ONE, 2021).
Where “and” joins values, the source holds several entries; their conditions need not be identical. Identical values can stand only once.

Test system: HepG2 cells
Test: Respiration in hepatocytes (Seahorse XF Mito stress test)
Format: cell-based, human
Conditions: for oxygen consumption rate, mito stress tracing: Fig2 A; for ECAR (Extracellular Acidification Rate) / OCR (Basal Oxygen Consumption rate): replicates

## CC#C[C@@H](CC(=O)O)c1ccc(OCC(C)=C(C)C)cc1 [CPL207280]
HepG2, 0.3 uM, 34.6705 min
  oxygen consumption rate, mito stress tracing: 80.249 and 97.2155 and 86.8514
HepG2, 0.3 uM, 41.3548 min
  oxygen consumption rate, mito stress tracing: 35.437 and 46.6744 and 43.9128
HepG2, 0.3 uM, 47.9665 min
  oxygen consumption rate, mito stress tracing: 35.8498 and 44.0725 and 43.5554
HepG2, 0.3 uM, 54.5812 min
  oxygen consumption rate, mito stress tracing: 34.6812 and 46.6208 and 43.7024
HepG2, 0.3 uM, 61.2916 min
  oxygen consumption rate, mito stress tracing: 130.123 and 163.716 and 142.011
HepG2, 0.3 uM, 67.9128 min
  oxygen consumption rate, mito stress tracing: 106.485 and 133.91 and 115.698
HepG2, 0.3 uM, 74.5347 min
  oxygen consumption rate, mito stress tracing: 96.5173
HepG2, 1 uM, 34.6705 min
  oxygen consumption rate, mito stress tracing: 100.011 and 78.8082 and 81.9508
HepG2, 1 uM, 41.3548 min
  oxygen consumption rate, mito stress tracing: 47.2411 and 41.158 and 37.0741
HepG2, 1 uM, 47.9665 min
  oxygen consumption rate, mito stress tracing: 46.2402 and 40.9403 and 37.3629
HepG2, 1 uM, 54.5812 min
  oxygen consumption rate, mito stress tracing: 47.0103 and 40.8472 and 36.7203
HepG2, 1 uM, 61.2916 min
  oxygen consumption rate, mito stress tracing: 170.96 and 125.782 and 138.858
HepG2, 1 uM, 67.9128 min
  oxygen consumption rate, mito stress tracing: 139.39 and 102.287 and 110.384
HepG2, 1 uM, 74.5347 min
  oxygen consumption rate, mito stress tracing: 123.934 and 92.2309 and 99.0802
HepG2, 10 uM, 34.6705 min
  oxygen consumption rate, mito stress tracing: 110.191 and 84.6025 and 86.6099
HepG2, 10 uM, 41.3548 min
  oxygen consumption rate, mito stress tracing: 53.0343 and 43.3081 and 40.0605
HepG2, 10 uM, 47.9665 min
  oxygen consumption rate, mito stress tracing: 52.304 and 44.0598 and 40.3019
HepG2, 10 uM, 54.5812 min
  oxygen consumption rate, mito stress tracing: 53.3375 and 43.9407 and 40.3833
HepG2, 10 uM, 61.2916 min
  oxygen consumption rate, mito stress tracing: 205.106 and 144.168 and 145.662
HepG2, 10 uM, 67.9128 min
  oxygen consumption rate, mito stress tracing: 156.881 and 114.329 and 108.157
HepG2, 10 uM, 74.5347 min
  oxygen consumption rate, mito stress tracing: 137.02 and 102.413 and 95.1094
HepG2, 30 uM, 34.6705 min
  oxygen consumption rate, mito stress tracing: 92.7755 and 86.7994 and 98.474
HepG2, 30 uM, 41.3548 min
  oxygen consumption rate, mito stress tracing: 47.1023 and 44.4378 and 48.0839
HepG2, 30 uM, 47.9665 min
  oxygen consumption rate, mito stress tracing: 46.5085 and 44.5297 and 49.242
HepG2, 30 uM, 54.5812 min
  oxygen consumption rate, mito stress tracing: 47.3133 and 45.4103 and 49.1801
HepG2, 30 uM, 61.2916 min
  oxygen consumption rate, mito stress tracing: 166.246 and 150.833 and 168.619
HepG2, 30 uM, 67.9128 min
  oxygen consumption rate, mito stress tracing: 122.701 and 115.579 and 125.99
HepG2, 30 uM, 74.5347 min
  oxygen consumption rate, mito stress tracing: 107.636 and 100.89 and 113.574
HepG2, 100 uM, 34.6705 min
  oxygen consumption rate, mito stress tracing: 67.4412 and 69.6068 and 55.4444
HepG2, 100 uM, 41.3548 min
  oxygen consumption rate, mito stress tracing: 37.8597 and 39.5148 and 33.1927
HepG2, 100 uM, 47.9665 min
  oxygen consumption rate, mito stress tracing: 37.9692 and 40.1535 and 34.8525
HepG2, 100 uM, 54.5812 min
  oxygen consumption rate, mito stress tracing: 38.5804 and 40.5605 and 35.0114
HepG2, 100 uM, 61.2916 min
  oxygen consumption rate, mito stress tracing: 98.1667 and 106.839 and 80.4832
HepG2, 100 uM, 67.9128 min
  oxygen consumption rate, mito stress tracing: 74.25 and 83.2846 and 59.4526
HepG2, 0.3 uM
  ECAR (Extracellular Acidification Rate): 0.9978 and 0.9743 and 0.8743
  OCR (Basal Oxygen Consumption rate): 0.9555 and 0.9023 and 1.068
HepG2, 1 uM
  ECAR (Extracellular Acidification Rate): 0.9613 and 0.9697 and 0.955
  OCR (Basal Oxygen Consumption rate): 0.9695 and 0.8683 and 1.043
HepG2, 10 uM
  ECAR (Extracellular Acidification Rate): 1.014 and 1.053 and 0.9962
  OCR (Basal Oxygen Consumption rate): 1.0176 and 0.8931 and 1.143
HepG2, 30 uM
  ECAR (Extracellular Acidification Rate): 0.995 and 1.079 and 1.004
  OCR (Basal Oxygen Consumption rate): 1.014 and 0.9586 and 1.1505
HepG2, 100 uM
  ECAR (Extracellular Acidification Rate): 1.11 and 1.113 and 1.179
  OCR (Basal Oxygen Consumption rate): 1.005 and 0.9369 and 1.04
HepG2, Seahorse XF
  EC50 of acidification of media (ECAR): absent
  effect on ATP synthesis: did not alter ATP synthesis
  effect on oxygen consumption rate / basal respiration: reduced basal and maximal respiration at the highest concentration of 100 μM
